Source: the NIST ThermoML archive (doi:10.1016/j.jct.2018.08.035)
± gives the expanded uncertainty stated by the source.

Conditions: 298.15 K; 101.33 kPa; Liquid; Vibrating tube method

SMILES	mass density
CCC(O)CC [3-pentanol]	815.8 ± 1.7 kg/m3
C[N+](=O)[O-] [nitromethane]	1131.1 ± 2.3 kg/m3
